{"source": "paper PMC12525028", "about": "“Blood–Brain Barrier Penetration of Novel 4-Trifluoromethyl-Coumarin Hybrids with Antibacterial Properties as Potential Brain Therapeutics in the Context of Spatially Diverse Healthcare Systems” (International Journal of Molecular Sciences, 2025)", "key": {"MTT cytotoxicity assay [1]": {"test": "MTT cytotoxicity assay", "details": "mouse; for viability at 24 h, 0.5 µg/mL: cell viability, BALB/c-3T3, 0.5 µg/mL, MTT", "method": "(§1) The cytotoxic effects of the tested peptidomimetics 1–8 on BALB/c-3T3 mouse fibroblast cells and gonadotroph cell lines such αT3-1 came from the ATCC collection.\n(§2) All cells were cultured in Petri dishes in DMEM in a 5% CO2 incubator. Balb/c3T3 cells required supplementation with 10% fetal bovine serum (PAA Laboratories, cat. no. A15-751), whereas αT3-1 cells were maintained in monolayer cultures in DMEM supplemented with 10% fetal bovine serum, 100 U/ml penicillin G, and 0.1 mg/mL streptomycin (Invitrogen, China) in humidified 5% CO2, 95% air, at 37 °C. The cells were passed at ~95% confluence using a trypsin-EDTA solution (0.05% trypsin, 0.5 mM EDTA). Cells were kept in phenol red-free medium containing charcoal-treated fetal bovine serum for 4 days before the experiments. All cell lines were periodically treated with plasmacin (Invivogen #ant-mpt-1, 10 μg/mL for 2 weeks) and examined for mycoplasma contamination by DAPI staining or PCR as described in [72, 73, 74, 75].\n(§3) Both cell lines were determined using the MTT assay after 24 h of incubation at five concentrations. The MTT test is based on the ability of mitochondrial dehydrogenase enzymes to convert an orange, water-soluble tetrazolium salt (3-(4,5-dimethylthiazol-2-yl)-2,5-diphenyltetrazolium bromide) into an insoluble formazan, which is a dark blue product of the above reaction. After the formazan crystals were placed in DMSO or isopropanol, a colored solution formed, and the intensity was measured spectrophotometrically within the wavelength range of 492–570 nm. The amount of colored reduced MTT was proportional to the oxidative activity of the cell mitochondria and, under strictly defined experimental conditions, to the number of metabolically active (living) cells in the population. The MTT test can also be used to determine cell viability in populations of cells that no longer divide, but are metabolically active."}, "MTT cytotoxicity assay [2]": {"test": "MTT cytotoxicity assay", "details": "mouse, αT3-1 pituitary gonadotrope cells; for viability at 24 h, 0.5 µg/mL: cell viability, αT3-1, 0.5 µg/mL, MTT", "method": "as §1, §2, §3"}, "[3]": {"test": "Transfer of coumarins from blood to CSF in sheep (third ventricle CSF, spectrophotometric)", "details": "for Value (μg/mL) Without Centrifugation (average coumarin concentration in CSF) / Mean (μg/mL) Value with Centrifugation (average coumarin concentration in CSF): iv infusion 50 mg/500 mL over 15 min; for Value (μg/mL) Without Centrifugation (average coumarin concentration in CSF): CSF not centrifuged; for Mean (μg/mL) Value with Centrifugation (average coumarin concentration in CSF): CSF centrifuged; for change in CSF concentration level after centrifugation: paired data before/after centrifugation; for transfer to the CSF (coumarin concentration level higher than 0) / crossing of the BBB/BCSFB (in words) / metabolism after crossing the BBB/BCSFB (in words): sheep; for transfer to the CSF (coumarin concentration level higher than 0): after centrifugation of CSF; for crossing of the BBB/BCSFB (in words): iv administration; for metabolism after crossing the BBB/BCSFB (in words): from regression and absorbance curves"}, "[4]": {"details": "in vivo; for crossing of the BBB/BCSFB (in words): iv"}, "[5]": {"test": "Mass spectrometric determination of coumarin 2 in sheep CSF (ESI, positive mode)", "format": "in vivo", "details": "sheep CSF after administration of compound 2, sodiated ion", "procedure": "All reagents and solvents were purchased from Sigma-Aldrich (Saint Louis, MI, USA). All solvents were of analytical grade and were used without prior distillation. Merck silica gel 60 F254 plates were used for TLC (Thin-Layer Chromatography) analysis. The crude reaction mixtures were purified using column chromatography on Merck silica gel 60/230–400 mesh (Rahway, NJ, USA), with an appropriate mixture of hexanes and ethyl acetate as eluent. Nuclear magnetic resonance (NMR) spectra were performed on a Varian apparatus (Varian, Saint Louis, MI, USA) (400 MHz) and (500 MHz); the mass spectrometer was from Waters Company, Milford, MA, USA. Chemical shifts are expressed in ppm and the coupling constant (J) is expressed in Hz using TMS as an internal standard. […] Cerebrospinal fluid (CSF) samples were analyzed for the presence of the investigated coumarin derivative 2 using a SCIEX API 3000 triple quadrupole mass spectrometer (Science, Engineering, and Technology (SCIEX, Concord, ON, Canada)) equipped with an electrospray ionization (ESI) source operated in positive ion mode.\nSheep CSF samples were collected and stored at −80 °C until further analysis. […] The samples were analyzed using a SCIEX API 3000 triple quadrupole mass spectrometer equipped with an electrospray ionization (ESI) source operating in positive ion mode. […]"}, "[6]": {"test": "Solubility in water (observation)", "format": "physicochemical"}, "in vitro [7]": {"test": "in vitro", "details": "mouse, cell viability, BALB/c-3T3, 0.5 µg/mL, MTT", "method": "as §1, §2, §3"}, "in vitro [8]": {"test": "in vitro", "details": "mouse, cell viability, αT3-1, 0.5 µg/mL, MTT", "method": "as §1, §2, §3"}, "[9]": {"details": "BALB/c-3T3 mouse embryonic fibroblast cells"}}, "note": "Entries after “also recorded” stand apart in the source; their conditions may differ. Where two headings read alike, the source gives them in different places.", "data": [{"smiles": "Cc1cc(=O)oc2cc(/N=C/c3ccccc3)ccc12", "note": "[Compound 6]", "values": [{"measurement": "viability at 24 h, 0.5 µg/mL", "setting": "MTT cytotoxicity assay [1]; [9]", "result": "> 96", "unit": "%"}, {"measurement": "viability at 24 h, 0.5 µg/mL", "setting": "MTT cytotoxicity assay [2]", "result": "> 96", "unit": "%"}, {"measurement": "Value (μg/mL) Without Centrifugation (average coumarin concentration in CSF)", "setting": "[3]; sheep CSF", "result": "8 (+/−5) μg/mL"}]}, {"smiles": "COc1ccc(CNC(=O)C(c2ccc(OC)cc2)N(C(=O)CCCC(=O)O)c2ccc3c(C)cc(=O)oc3c2)cc1", "note": "(centres unmarked) [Compound 1]", "values": [{"measurement": "Mean (μg/mL) Value with Centrifugation (average coumarin concentration in CSF)", "setting": "[3]; sheep CSF", "result": "2 (+/−5) μg/mL"}, {"measurement": "Value (μg/mL) Without Centrifugation (average coumarin concentration in CSF)", "setting": "[3]; sheep CSF", "result": "10 (+/−5) μg/mL"}]}, {"smiles": "COc1ccc(CNC(=O)C(c2ccc(Br)cc2)N(C(=O)Cc2ccccc2)c2ccc3c(C)cc(=O)oc3c2)cc1", "note": "(centres unmarked) [Compound 8]", "values": [{"measurement": "IC50 at 24 h", "setting": "MTT cytotoxicity assay [1]; [9]", "result": 1.71, "unit": "µg/mL"}, {"measurement": "IC50 at 24 h", "setting": "MTT cytotoxicity assay [2]", "result": 1.71, "unit": "µg/mL"}, {"measurement": "Mean (μg/mL) Value with Centrifugation (average coumarin concentration in CSF)", "setting": "[3]; sheep CSF", "result": "20 (+/−5) μg/mL"}, {"measurement": "Value (μg/mL) Without Centrifugation (average coumarin concentration in CSF)", "setting": "[3]; sheep CSF", "result": "30 (+/−5) μg/mL"}, {"measurement": "change in CSF concentration level after centrifugation", "setting": "[3]; sheep CSF", "result": "significant decrease"}, {"measurement": "transfer to the CSF (coumarin concentration level higher than 0)", "setting": "[3]", "result": "statistically confirmed"}, {"measurement": "crossing of the BBB/BCSFB (in words)", "setting": "[3]", "result": "penetrated the blood–brain barrier to the greatest extent; also recorded: capable of crossing the blood–brain barrier"}]}, {"smiles": "CCOC(=O)CNC(=O)C(Nc1ccc2c(C(F)(F)F)cc(=O)oc2c1)c1ccc(Br)cc1", "note": "(centres unmarked) [Compound 7]", "values": [{"measurement": "metabolism after crossing the BBB/BCSFB (in words)", "setting": "[4]", "result": "partially metabolized"}, {"measurement": "transfer to the CSF (coumarin concentration level higher than 0)", "setting": "[4]", "result": "statistically confirmed"}, {"measurement": "crossing of the BBB/BCSFB (in words)", "setting": "[4]", "result": "crossed the BBB/BCSFB"}]}, {"smiles": "CCOC(=O)CNC(=O)C(c1ccc(OC)cc1)N(C(=O)Cc1ccccc1)c1ccc2c(C)cc(=O)oc2c1", "note": "(centres unmarked) [Compound 5]", "values": [{"measurement": "viability at 24 h, 0.5 µg/mL", "setting": "MTT cytotoxicity assay [1]; [9]", "result": "> 96", "unit": "%"}, {"measurement": "viability at 24 h, 0.5 µg/mL", "setting": "MTT cytotoxicity assay [2]", "result": "> 96", "unit": "%"}, {"measurement": "Value (μg/mL) Without Centrifugation (average coumarin concentration in CSF)", "setting": "[3]; sheep CSF", "result": "5 (+/−5) μg/mL"}, {"measurement": "crossing of the BBB/BCSFB (in words)", "setting": "[3]", "result": "crossed the BBB/BCSFB"}, {"measurement": "metabolism after crossing the BBB/BCSFB (in words)", "setting": "[3]", "result": "partially metabolized"}]}, {"smiles": "CCOC(=O)CNC(=O)C(Nc1ccc2c(C(F)(F)F)cc(=O)oc2c1)c1ccccc1", "note": "(centres unmarked) [Compound 2]", "values": [{"measurement": "detection in CSF by ESI-MS", "setting": "[5]", "result": "presence of the compound as its sodiated ion"}, {"measurement": "solubility in water (in words)", "setting": "[6]", "result": "does not dissolve in water"}, {"measurement": "crossing of the BBB/BCSFB (in words)", "setting": "[4]", "result": "penetrated the blood–brain barrier to the greatest extent"}, {"measurement": "protein binding (in words)", "setting": "[4]; sheep", "result": "binds well to proteins"}, {"measurement": "IC50 at 24 h", "setting": "MTT cytotoxicity assay [1]", "result": 6.58, "unit": "µg/mL"}, {"measurement": "IC50 at 24 h", "setting": "MTT cytotoxicity assay [2]", "result": 6.58, "unit": "µg/mL"}, {"measurement": "Value (μg/mL) Without Centrifugation (average coumarin concentration in CSF)", "setting": "[3]; sheep CSF", "result": "350 (+/−5) μg/mL"}, {"measurement": "average coumarin concentration in CSF after centrifugation", "setting": "[3]; sheep CSF, iv infusion, after centrifugation", "result": 118.32, "unit": "µg/mL"}, {"measurement": "average coumarin concentration in CSF before centrifugation", "setting": "[3]; sheep CSF, iv infusion, before centrifugation", "result": 355.85, "unit": "µg/mL"}, {"measurement": "change in CSF concentration level after centrifugation", "setting": "[3]; sheep CSF", "result": "significant decrease"}, {"measurement": "transfer to the CSF (coumarin concentration level higher than 0)", "setting": "[3]", "result": "statistically confirmed"}]}, {"smiles": "CCOC(=O)CNC(=O)C(Nc1ccc2c(C(F)(F)F)cc(=O)oc2c1)c1ccc(OC)cc1", "note": "(centres unmarked) [Compound 4]", "values": [{"measurement": "viability at 24 h, 0.5 µg/mL", "setting": "in vitro [7]", "result": "> 96", "unit": "%"}, {"measurement": "viability at 24 h, 0.5 µg/mL", "setting": "in vitro [8]", "result": "> 96", "unit": "%"}]}, {"smiles": "COc1ccc(CNC(=O)C(c2ccccc2)N(C(=O)CCCC(=O)O)c2ccc3c(C)cc(=O)oc3c2)cc1", "note": "(centres unmarked) [Compound 3]", "values": [{"measurement": "viability at 24 h, 0.5 µg/mL", "setting": "MTT cytotoxicity assay [1]; [9]", "result": "> 96", "unit": "%"}, {"measurement": "viability at 24 h, 0.5 µg/mL", "setting": "MTT cytotoxicity assay [2]", "result": "> 96", "unit": "%"}, {"measurement": "Value (μg/mL) Without Centrifugation (average coumarin concentration in CSF)", "setting": "[3]; sheep CSF", "result": "2.5 (+/−5) μg/mL"}, {"measurement": "crossing of the BBB/BCSFB (in words)", "setting": "[3]", "result": "crossed the BBB/BCSFB"}, {"measurement": "metabolism after crossing the BBB/BCSFB (in words)", "setting": "[3]", "result": "partially metabolized"}]}]}
